Reference: patent US3954730A, “6-(Substituted-cycloalkylcarboxamide) penicillanic acids” (Bayer Aktiengesellschaft, priority 1973, dated 1976)
Counter-ions that a name gives are not always drawn.

Columns and labels:
[1] = system: E. coli 14; assay: Minimum inhibitory concentration (MIC) in vitro, liquid medium test tube series dilution test; assay type: cell-based; conditions: 24 hours incubation at 37° C
Experimental: (§1) They were determined in a liquid medium in a test tube series dilution test, the readings being taken after 24 hours incubation at 37° C.
(§2) The numbers allotted to the compounds of the invention in Table 1 correspond to the numbers of the Preparative Examples in which the preparation of the particular compounds are described.
(§3) The MIC is indicated by the non-turbid test tube in the dilution series. A complete medium of the following composition was used as the growth medium: […]

[2] = system: Staph. aureus 133; assay: as above; assay type: cell-based; conditions: 24 hours incubation at 37° C
Experimental: (§4) Table 1, which follows, specifies the minimum inhibitory concentrations (MIC) in vitro, in U/ml of nutrient medium of typical compounds of the invention. They were determined in a liquid medium in a test tube series dilution test, the readings being taken after 24 hours incubation at 37° C.
as §2, §3

[3] = system: Staph. aureus 1756; assay: as above; assay type: cell-based; conditions: 24 hours incubation at 37° C
Experimental: as §4, §2, §3

[4] = system: Ent. ATCC 9790; assay: as above; assay type: cell-based, Enterococcus; conditions: 24 hours incubation at 37° C
Experimental: as §1, §2, §3

[5] = system: E. coli BE; assay: Turbidity test in Muller-Hinton nutrient broth at 100 μg/ml; assay type: cell-based; conditions: 24 hours
[6] = system: Salmonella sp.; assay: as above; assay type: cell-based
[7] = system: Shigella sp.; assay: as above; assay type: cell-based
[8] = system: Proteus indolnegativ, sp.; assay: as above; assay type: cell-based
[9] = system: Pasteurella pseudotuberculosis; assay type: cell-based; conditions: 100 μg/ml, 24 hours
[10] = system: Brucella sp.; assay type: cell-based; conditions: 100 μg/ml, 24 hours
[11] = system: Haemophilus influenzae; assay: Turbidity test in Muller-Hinton nutrient broth at 100 μg/ml; assay type: cell-based
[12] = system: Bordetella bronciseptica; assay: as above; assay type: cell-based
[13] = system: Staphylococcus aureus 133; assay: as above; assay type: cell-based
[14] = system: Neisseria catarrhalis sp.; assay: as above; assay type: cell-based
[15] = system: Diplococcus pneumoniae sp.; assay: as above; assay type: cell-based
[16] = system: Streptococcus pyogenes W.; assay: as above; assay type: cell-based
[17] = system: Enterococcus sp.; assay: as above; assay type: cell-based
[18] = system: Lactobacillus sp.; assay: as above; assay type: cell-based
[19] = system: Corynebacterium diphteriae gravis; assay: as above; assay type: cell-based
[20] = system: Corynebacterium pyrogenes M; assay: as above; assay type: cell-based
[21] = system: Clostridium botulinium; assay type: cell-based
[22] = system: Clostridium tetani; assay type: cell-based; conditions: 100 μg/ml, 24 hours
[23] = system: E. coli C 165; assay: Minimum inhibitory concentration (MIC) in vitro, liquid medium test tube series dilution test; assay type: cell-based; conditions: 24 hours incubation at 37° C
Experimental: as §4, §2, §3

SMILES	MIC [1]	MIC [2]	MIC [3]	MIC [4]	MIC [23]	also measured
CC1(C)S[C@@H]2[C@H](NC(=O)C3(C)CC3(Cl)Cl)C(=O)N2[C@H]1C(=O)O (some centres unmarked) [Example 1, sodium salt of 6-(2,2-dichloro-1-methyl-cyclopropylcarboxamido)-penicillanic acid]	128 U/ml	0.2 U/ml	32-64 U/ml	16-32 U/ml	–	freedom from turbidity (anti-bacterial action) [5]: free from turbidity; freedom from turbidity (anti-bacterial action) [6]: free from turbidity; freedom from turbidity (anti-bacterial action) [7]: free from turbidity; freedom from turbidity (anti-bacterial action) [8]: free from turbidity; freedom from turbidity (anti-bacterial action) [9]: free from turbidity; freedom from turbidity (anti-bacterial action) [10]: free from turbidity; freedom from turbidity (anti-bacterial action) [11]: free from turbidity; freedom from turbidity (anti-bacterial action) [12]: free from turbidity; freedom from turbidity (anti-bacterial action) [13]: free from turbidity; freedom from turbidity (anti-bacterial action) [14]: free from turbidity; freedom from turbidity (anti-bacterial action) [15]: free from turbidity; freedom from turbidity (anti-bacterial action) [16]: free from turbidity; freedom from turbidity (anti-bacterial action) [17]: free from turbidity; freedom from turbidity (anti-bacterial action) [18]: free from turbidity; freedom from turbidity (anti-bacterial action) [19]: free from turbidity; freedom from turbidity (anti-bacterial action) [20]: free from turbidity; freedom from turbidity (anti-bacterial action) [21]: free from turbidity; freedom from turbidity (anti-bacterial action) [22]: free from turbidity
CC1(C)S[C@@H]2[C@H](NC(=O)C3(C)CC3(Br)Br)C(=O)N2[C@H]1C(=O)O (some centres unmarked) [Example 2, sodium salt of 6-(2,2-dibromo-1-methyl-cyclopropyl-carboxamido)-penicillanic acid]	128 U/ml	0.2 U/ml	128 U/ml	32 U/ml	–	–
CC1(C)S[C@@H]2[C@H](NC(=O)C3CC3C#N)C(=O)N2[C@H]1C(=O)O (some centres unmarked) [Example 3, sodium salt of 6-(2-cyano-1-cyclopropylcarboxamido)-penicillanic acid]	128-256 U/ml	2-4 U/ml	–	64-128 U/ml	–	–
CC1(C)S[C@@H]2[C@H](NC(=O)C3CC(Cl)C3)C(=O)N2[C@H]1C(=O)O (some centres unmarked) [Example 4, sodium salt of 6-(3-chloro-cyclobutylcarboxamido)-penicillanic acid]	32-64 U/ml	2-4 U/ml	32-64 U/ml	8-16 U/ml	128-256 U/ml	–
CC1(C)S[C@@H]2[C@H](NC(=O)C3(C#N)CCC3)C(=O)N2[C@H]1C(=O)O [Example 5, sodium salt of 6(1-cyano-1-cyclobutylcarboxamido)-penicillanic acid]	32-64 U/ml	0.2 U/ml	128 U/ml	8 U/ml	128 U/ml	–
CC1(C)S[C@@H]2[C@H](NC(=O)C3CCC(Cl)C3)C(=O)N2[C@H]1C(=O)O (some centres unmarked) [Example 6, sodium salt of 6-(4-chloro-1-cyclopentylcarboxamide)-penicillanic acid]	32 U/ml	0.1 U/ml	32-64 U/ml	8-16 U/ml	128 U/ml	–
CC1(C)S[C@@H]2[C@H](NC(=O)C3CC(Cl)C(Cl)C3)C(=O)N2[C@H]1C(=O)O (some centres unmarked) [Example 7, sodium salt of 6-(3,4-dichlorocyclopentylcarboxamido)-penicillanic acid]	32 U/ml	0.1 U/ml	32-64 U/ml	8-16 U/ml	128 U/ml	–
CC1(C)S[C@@H]2[C@H](NC(=O)C3(Cl)CCCC3=O)C(=O)N2[C@H]1C(=O)O (some centres unmarked) [Example 8, Sodium salt of 6-(cyclopentanone-2-chloro-2-carboxamido)-penicillanic acid]	128 U/ml	2-4 U/ml	–	128 U/ml	–	–
CC1(C)S[C@@H]2[C@H](NC(=O)C3CCC(Cl)CC3)C(=O)N2[C@H]1C(=O)O (some centres unmarked) [Example 9, sodium salt of 6-(4-chloro-1-cyclohexylcarboxamido)-penciillanic acid]	64 U/ml	0.1 U/ml	64 U/ml	8-16 U/ml	–	–
